According to the supplement of paper PMC10307832:

What was measured:
Assay in all cases: relative viability (nuclei count vs DMSO), 5 days (fraction); higher = more cells survive
[1] = compound: CC1CC(=O)N(C2=CN=C(N=C2N1C3CCCC3)NC4=C(C=C(C=C4)C(=O)NC5CCN(CC5)C)OC)C [NPK76-II-72-1] + COc1cccc2cc(-c3nc([C@H]4CC[C@H](C(=O)O)CC4)n4ncnc(N)c34)[nH]c12 [OSI-027] (partner 0.5 µM)
How it was run: (§1)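 Lung cancer cell lines in 1536-well plates were dosed by pin tool the day after seeding, either with one drug alone or with a fixed anchor-drug dose plus five library-drug doses (not always all listed) in √10 steps. After 5 days, cells were fixed and their nuclei stained in one step (final 0.05% Triton X-100, 1% formaldehyde, 1 ug/ml Hoechst), then counted on 4× images. Relative viability is the nuclei count in treated wells divided by that in vehicle wells. Values are medians of duplicate plates.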

[2] = compound: CC[C@@H]1C(=O)N(C)c2cnc(Nc3ccc(C(=O)NC4CCN(C)CC4)cc3OC)nc2N1C1CCCC1 [BI-2536] + CCNC(=O)c1noc(-c2cc(C(C)C)c(O)cc2O)c1-c1ccc(CN2CCOCC2)cc1 [Luminespib] (partner 0.01 µM)
How it was run: as §1

[3] = compound: CC[C@@H]1C(=O)N(C)c2cnc(Nc3ccc(C(=O)NC4CCN(C)CC4)cc3OC)nc2N1C1CCCC1 [BI-2536] + CS(=O)(=O)CCNCc1ccc(-c2ccc3ncnc(Nc4ccc(OCc5cccc(F)c5)c(Cl)c4)c3c2)o1 [Lapatinib] (partner 2 µM)
How it was run: as §1

[4] = compound: CC[C@@H]1C(=O)N(C)c2cnc(Nc3ccc(C(=O)NC4CCN(C)CC4)cc3OC)nc2N1C1CCCC1 [BI-2536] + NC(=O)Nc1cc(-c2cccc(F)c2)sc1C(=O)N[C@H]1CCCNC1 [AZD7762] (partner 0.2 µM)
How it was run: as §1

| Cell Line | relative viability ([1]; first compound 0.01 µM) | relative viability ([1]; first compound 0.03162 µM) | relative viability ([1]; first compound 0.1 µM) | relative viability ([1]; first compound 0.3162 µM) | relative viability ([1]; first compound 1 µM) | relative viability ([2]; first compound 0.01 µM) | relative viability ([2]; first compound 0.03162 µM) | relative viability ([2]; first compound 0.1 µM) | relative viability ([2]; first compound 0.3162 µM) | relative viability ([2]; first compound 1 µM) | relative viability ([3]; first compound 0.01 µM) | relative viability ([3]; first compound 0.03162 µM) | relative viability ([3]; first compound 0.1 µM) | relative viability ([3]; first compound 0.3162 µM) | relative viability ([3]; first compound 1 µM) | relative viability ([4]; first compound 0.01 µM) | relative viability ([4]; first compound 0.03162 µM) | relative viability ([4]; first compound 0.1 µM) | relative viability ([4]; first compound 0.3162 µM) | relative viability ([4]; first compound 1 µM) |
| --- | --- | --- | --- | --- | --- | --- | --- | --- | --- | --- | --- | --- | --- | --- | --- | --- | --- | --- | --- | --- |
| NCI-H1437 | 0.862 | 0.877 | 0.871 | 0.843 | 0.995 | 1.14 | 0.961 | 0.729 | 0.2 | 0.164 | 0.784 | 0.718 | 0.237 | 0.116 | 0.122 | 1.01 | 0.892 | 1.03 | 0.141 | 0.163 |
| SK-LU-1 | 0.321 | 0.355 | 0.368 | 0.361 | 0.406 | 0.216 | 0.2 | 0.167 | 0.174 | 0.169 | 0.815 | 0.715 | 0.495 | 0.252 | 0.189 |  |  |  |  |  |
| Calu-6 |  |  |  |  |  |  |  |  |  |  | 0.957 | 0.666 | 0.703 | 0.122 | 0.132 |  |  |  |  |  |
| SK-MES-1 | 0.585 | 0.617 | 0.583 | 0.661 | 0.742 | 0.802 | 0.698 | 0.23 | 0.219 | 0.195 | 0.465 | 0.45 | 0.503 | 0.213 | 0.186 |  |  |  |  |  |
| NCI-H1650 | 0.609 | 0.716 | 0.576 | 0.414 | 0.738 | 0.188 | 0.166 | 0.21 | 0.183 | 0.198 | 0.775 | 0.649 | 0.176 | 0.151 | 0.124 |  |  |  |  |  |
| HCC-366 | 0.939 | 0.998 | 1.08 | 0.863 | 0.888 |  |  |  |  |  | 1.06 | 0.682 | 0.04 | 0.0163 | 0.0221 | 0.246 | 0.37 | 0.156 | 0.017 | 0.0177 |
| HCC-78 | 0.511 | 0.467 | 0.356 | 0.496 | 0.404 |  |  |  |  |  | 0.403 | 0.885 | 0.814 | 0.39 | 0.18 | 0.75 | 0.576 | 0.687 | 0.433 | 0.249 |
| EBC-1 |  |  |  |  |  |  |  |  |  |  | 0.21 | 0.194 | 0.203 | 0.174 | 0.155 |  |  |  |  |  |
| NCI-H1623 | 0.422 | 0.405 | 0.432 | 0.362 | 0.461 | 0.402 | 0.508 | 0.374 | 0.405 | 0.388 |  |  |  |  |  |  |  |  |  |  |
| NCI-H2342 | 0.632 | 0.572 | 0.632 | 0.435 | 0.58 | 0.883 | 0.661 | 0.676 | 0.38 | 0.369 |  |  |  |  |  |  | 0.459 | 0.411 | 0.267 | 0.349 |
| SW 900 | 0.542 | 0.475 | 0.513 | 0.601 | 0.713 | 0.189 | 0.186 | 0.173 | 0.198 | 0.201 |  |  |  |  |  | 0.557 | 0.689 | 0.568 | 0.188 | 0.137 |
| NCI-H2228 | 0.427 | 0.615 | 0.547 | 0.55 | 0.724 | 0.161 | 0.179 | 0.183 | 0.145 | 0.124 | 1.38 | 0.629 | 0.207 | 0.165 | 0.166 |  |  |  |  |  |
| NCI-H1563 | 0.698 | 0.804 | 0.739 | 0.749 | 0.778 | 0.483 | 0.547 | 0.545 | 0.507 | 0.372 | 0.906 | 0.938 | 0.832 | 0.568 | 0.638 |  |  |  |  |  |
| NCI-H1299 |  |  |  |  |  |  |  |  |  |  | 0.933 | 0.933 | 0.69 | 0.291 | 0.235 |  |  |  |  |  |
| SW 1573 | 0.704 | 0.65 | 0.603 | 0.599 | 0.664 | 0.123 | 0.117 | 0.152 | 0.122 | 0.0874 | 1.1 | 1.2 | 1.12 | 0.186 | 0.18 |  |  |  |  |  |
| COR-L 105 | 0.644 | 0.724 | 0.718 | 0.609 | 1.09 | 0.882 | 0.514 | 0.434 | 0.325 | 0.327 | 0.309 | 0.364 | 0.271 | 0.248 | 0.269 |  |  |  |  |  |
| NCI-H661 | 0.667 | 0.772 | 0.746 | 0.588 | 0.742 | 0.944 | 0.936 | 0.347 | 0.296 | 0.257 | 0.498 | 0.543 | 0.398 | 0.224 | 0.179 |  |  |  |  |  |
| NCI-H522 | 0.72 | 0.969 | 0.681 | 0.623 | 0.846 | 1.21 | 1.08 | 1.04 | 0.375 | 0.318 |  |  |  |  |  | 0.826 | 0.879 | 0.944 | 0.302 | 0.365 |
| A549 |  |  |  |  |  |  |  |  |  |  | 1.05 | 0.813 | 0.476 | 0.053 | 0.0394 |  |  |  |  |  |
| NCI-H2009 | 0.659 | 0.671 | 0.596 | 0.547 | 0.778 | 1.09 | 0.94 | 0.696 | 0.16 | 0.0773 | 0.869 | 0.64 | 0.101 | 0.158 | 0.0981 |  |  |  |  |  |
| NCI-H1648 | 0.239 | 0.244 |  |  | 0.26 |  |  |  |  |  |  |  |  |  |  | 0.767 | 0.775 | 0.432 | 0.332 | 0.224 |
| IA-LM |  |  |  |  |  |  |  |  |  |  | 0.699 | 0.639 | 0.408 | 0.139 | 0.0816 |  |  |  |  |  |
| COR-L23 | 0.645 | 0.858 | 0.864 | 0.775 | 0.764 | 0.668 | 0.705 | 0.171 | 0.106 | 0.122 | 1.05 | 0.776 | 0.357 | 0.0913 | 0.102 |  |  |  |  |  |
| ChaGo-K-1 | 0.561 | 0.622 | 0.582 | 0.63 | 0.653 | 0.691 | 0.615 | 0.529 | 0.16 | 0.178 |  |  |  |  |  | 0.828 | 0.854 | 0.644 | 0.241 | 0.202 |
| NCI-H520 | 0.358 | 0.265 | 0.238 | 0.257 | 0.305 | 0.242 | 0.199 | 0.194 | 0.206 | 0.214 | 0.686 | 0.471 | 0.154 | 0.193 | 0.164 |  |  |  |  |  |
